Measured values as given in patent US6737383B1, “Herbicidal oxadiazolidines” (priority 1999, dated 2004).

Columns and labels:
sugar beet = assay: Test B pre/postemergence sugar beet; type: in vivo, Beta vulgaris
Method in brief: (§1)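 Test chemicals in a non-phytotoxic solvent mixture with surfactant were sprayed preemergence onto planted seeds and postemergence onto plants 2 to 18 cm tall (1- to 4-leaf stage). After twelve to sixteen days in a greenhouse, injury was visually rated against untreated controls from 0 (no effect) to 10 (complete control).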

bamyardgrass = assay: Test B flood test barnyardgrass; type: in vivo, Echinochloa crus-galli
Method in brief: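 Flood test on plants grown to the 2-leaf stage; treated plants kept in greenhouse twelve to sixteen days, then visually rated against controls on a 0 (no effect) to 10 (complete control) scale.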

cocklebur = assay: Test B pre/postemergence cocklebur; type: in vivo, Xanthium strumarium
Method in brief: as §1

rape = assay: Test B pre/postemergence rape; type: in vivo, Brassica napus
Method in brief: as §1

[1] = Preemergence, Rate 31 g/ha, visual rating, scale 0 to 10 (0 no effect, 10 complete control)
[2] = Preemergence, Rate 62 g/ha, scale of 0 to 10 where 0 is no effect and 10 is complete control
[3] = Preemergence, Rate 250 g/ha, scale of 0 to 10 where 0 is no effect and 10 is complete control
[4] = Rate 62 g/ha, Postemergence, scale of 0 to 10 where 0 is no effect and 10 is complete control
[5] = Rate 125 g/ha, Postemergence, scale 0 to 10
[6] = Rate 125 g/ha, Preemergence, scale of 0 to 10 where 0 is no effect and 10 is complete control
[7] = Rate 125 g/ha, Pre-emergence, flood test species, scale 0 to 10 where 0 is no effect and 10 is complete control
[8] = Rate 250 g/ha, Pre-emergence, flood-test species, scale 0 to 10, 0 is no effect, 10 is complete control
[9] = Rate 31 g/ha, Postemergence, scale 0 to 10
[10] = Preemergence, Rate 500 g/ha, scale of 0 to 10 where 0 is no effect and 10 is complete control
[11] = Rate 62 g/ha, Postemergence, scale 0 to 10 (0 no effect, 10 complete control)
[12] = Rate 125 g/ha, Postemergence, scale of 0 to 10 where 0 is no effect and 10 is complete control
[13] = Rate 250 g/ha, Postemergence, scale of 0 to 10 where 0 is no effect and 10 is complete control

**Q.** For `CC(=O)Cn1c(=O)on(C(=O)N(c2ccc(F)cc2)C(C)C)c1=O` [Compound 217], which “Sugarbeets plant response rating” value (sugar beet; [1]) is on record?
**A.** 0

**Q.** And the “Sugarbeets plant response rating” value (sugar beet; [2])?
**A.** 0

**Q.** And the “Sugarbeets plant response rating” value (sugar beet; [3])?
**A.** 0

**Q.** And the “Sugarbeets plant response rating” value (sugar beet; [4])?
**A.** 0

**Q.** And the “Sugarbeets plant response rating” value (sugar beet; [5])?
**A.** 0

**Q.** And the “Sugarbeets plant response rating” value (sugar beet; [6])?
**A.** 0

**Q.** And the “Plant response rating (0 to 10; 0 is no effect, 10 is complete control), Sugarbeets” value (sugar beet; Rate 250 g/ha, Postemergence)?
**A.** 0

**Q.** What about the “Barnyardgrass plant response rating” value (bamyardgrass; Rate 31 g/ha, Pre-emergence section (flood test species), scale 0 to 10) of the same molecule?
**A.** 0

**Q.** What about the “Barnyardgrass plant response rating” value (bamyardgrass; Rate 62 g/ha, headed Pre-emergence (flood test species), scale 0 to 10 (0 no effect, 10 complete control)) of the same molecule?
**A.** 0

**Q.** What about the “Barnyardgrass plant response rating” value (bamyardgrass; [7]) of the same molecule?
**A.** 0

**Q.** What about the “Barnyardgrass plant response rating” value (bamyardgrass; [8]) of the same molecule?
**A.** 0

**Q.** What about the “Cocklebur plant response rating” value (cocklebur; [1]) of the same molecule?
**A.** 0

**Q.** What about the “Cocklebur plant response rating” value (cocklebur; [2]) of the same molecule?
**A.** 0

**Q.** What about the “Cocklebur plant response rating” value (cocklebur; [3]) of the same molecule?
**A.** 0

**Q.** What about the “Cocklebur plant response rating” value (cocklebur; [9]) of the same molecule?
**A.** 0

**Q.** What about the “Cocklebur plant response rating” value (cocklebur; [4]) of the same molecule?
**A.** 0

**Q.** What about the “Cocklebur plant response rating” value (cocklebur; [5]) of the same molecule?
**A.** 0

**Q.** What about the “Cocklebur plant response rating” value (cocklebur; [6]) of the same molecule?
**A.** 0

**Q.** And the “Plant response rating (0 to 10; 0 is no effect, 10 is complete control), Cocklebur” value (cocklebur; Rate 250 g/ha, Postemergence)?
**A.** 0

**Q.** And the “Rape plant response rating” value (rape; [1])?
**A.** 0

**Q.** And the “Rape plant response rating” value (rape; [2])?
**A.** 0

**Q.** And the “Rape plant response rating” value (rape; [3])?
**A.** 4

**Q.** And the “Rape plant response rating” value (rape; [9])?
**A.** 0

**Q.** And the “Rape plant response rating” value (rape; [4])?
**A.** 0

**Q.** And the “Rape plant response rating” value (rape; [5])?
**A.** 0

**Q.** What about the “Rape plant response rating” value (rape; [6]) of the same molecule?
**A.** 0

**Q.** And the “Plant response rating (0 to 10; 0 is no effect, 10 is complete control), Rape” value (rape; Rate 250 g/ha, Postemergence)?
**A.** 0

**Q.** How did the “Sugarbeets plant response rating” value (sugar beet; [2]) turn out when `CCN(C(=O)n1oc(=O)n(C2CCCCC2)c1=O)C1CCCCC1` [Compound 308] was run?
**A.** 0

**Q.** What about the “Sugarbeets plant response rating (0 to 10 scale)” value (sugar beet; Preemergence, Rate 125 g/ha) of the same molecule?
**A.** 0

**Q.** And the “Sugarbeets plant response rating” value (sugar beet; [3])?
**A.** 0

**Q.** And the “Sugarbeets plant response rating” value (sugar beet; [10])?
**A.** 0

**Q.** And the “Sugarbeets plant response rating” value (sugar beet; [11])?
**A.** 0

**Q.** What about the “Sugarbeets plant response rating” value (sugar beet; [12]) of the same molecule?
**A.** 0

**Q.** What about the “Plant response rating, Sugarbeets” value (sugar beet; [13]) of the same molecule?
**A.** 0

**Q.** What about the “Barnyardgrass plant response rating” value (bamyardgrass; Pre-emergence, Rate 1000 g/ha, scale 0 to 10 (0 no effect, 10 complete control)) of the same molecule?
**A.** 0

**Q.** What about the “Barnyardgrass plant response rating” value (bamyardgrass; [7]) of the same molecule?
**A.** 0

**Q.** And the “Barnyardgrass plant response rating” value (bamyardgrass; [8])?
**A.** 0

**Q.** What about the “Barnyardgrass plant response rating” value (bamyardgrass; Rate 500 g/ha, Pre-emergence, flood test species, scale 0 to 10 (0 no effect, 10 complete control)) of the same molecule?
**A.** 0

**Q.** And the “Cocklebur plant response rating” value (cocklebur; [2])?
**A.** 0

**Q.** What about the “Cocklebur plant response rating (0 to 10 scale)” value (cocklebur; Preemergence, Rate 125 g/ha) of the same molecule?
**A.** 0

**Q.** And the “Cocklebur plant response rating” value (cocklebur; [3])?
**A.** 0

**Q.** What about the “Cocklebur plant response rating” value (cocklebur; [10]) of the same molecule?
**A.** 0

**Q.** What about the “Cocklebur plant response rating” value (cocklebur; [11]) of the same molecule?
**A.** 0

**Q.** And the “Cocklebur plant response rating” value (cocklebur; [12])?
**A.** 0

**Q.** And the “Plant response rating, Cocklebur” value (cocklebur; [13])?
**A.** 0

**Q.** What about the “Cocklebur plant response rating” value (cocklebur; Rate 500 g/ha, Postemergence, scale 0 to 10, 0 no effect, 10 complete control) of the same molecule?
**A.** 0

**Q.** And the “Rape plant response rating” value (rape; [2])?
**A.** 0

**Q.** What about the “Rape plant response rating (0 to 10 scale)” value (rape; Preemergence, Rate 125 g/ha) of the same molecule?
**A.** 0

**Q.** What about the “Rape plant response rating” value (rape; [3]) of the same molecule?
**A.** 0

**Q.** What about the “Rape plant response rating” value (rape; [10]) of the same molecule?
**A.** 0

**Q.** And the “Rape plant response rating” value (rape; [11])?
**A.** 0

**Q.** What about the “Rape plant response rating” value (rape; [12]) of the same molecule?
**A.** 0

**Q.** What about the “Plant response rating, Rape” value (rape; [13]) of the same molecule?
**A.** 0
